Literature values in paper PMC9179904 (Cancers, 2022).

Experiments:
[1] = tested on: PC-3 PIP and LNCaP tumors; set-up: method as in PMID 34402925
[2] = set-up: method as in PMID 7938477, PMID 9935073

Row | Molecule | Tumor uptake, PC-3 PIP higher than LNCaP tumors [1] | Internalized alpha particles needed to decrease survival to 37–50% [2]
1 | O=C([O-])CN1CCN(CC(=O)[O-])CCN(CC(=O)NCC2CCC(C(=O)N[C@@H](Cc3ccc4ccccc4c3)C(=O)NCCCC[C@H](NC(=O)N[C@@H](CCC(=O)O)C(=O)O)C(=O)O)CC2)CCN(CC(=O)[O-])CC1.[177Lu+3] (stereo partly drawn) [^177Lu-PSMA-617] | 6–10 fold | 
2 | S=C([S-])N1CCCC1.S=C([S-])N1CCCC1.[Pb+2] [^212Pb(PDC)2] |  | 11
3 | ^213Bi-CHX-A-DTPA-HuM195m |  | 1
